Assay results reported in ChEMBL document CHEMBL1150786, “Relationship of blood level and susceptibility in voriconazole treatment of histoplasmosis” (2007).
In brackets after ≈: the same amount, converted by molar mass.

Key:
Histoplasma capsulatum [1] = test: Antimicrobial activity against Histoplasma capsulatum isolates form AIDS patient with primary histoplasmosis by modified CLSI method; assay type: functional
Histoplasma capsulatum [2] = test: Antimicrobial activity against Histoplasma capsulatum isolates form AIDS patient with relapsed histoplasmosis by modified CLSI method; assay type: functional

## C[C@@H](c1ncncc1F)[C@](O)(Cn1cncn1)c1ccc(F)cc1F [VORICONAZOLE]
Histoplasma capsulatum [1]
  MIC: 0.015 µg/mL (≈ 0.0429 µM)
Histoplasma capsulatum [2]
  MIC: 0.03 µg/mL (≈ 0.0859 µM)
